The structures appear in SMILES notation.

The test system of this assay is Wnt pathway (TCF-dependent transcription in HEK293 luciferase reporter cell line with ER-DSH construct). The assay is described as follows: Cellular assay for Wnt pathway activity (luciferase reporter). It is filed as cell-based. The conditions noted are these: Homo sapiens; Wnt pathway inhibition, HEK293 luciferase reporter cells (ER-DSH, TCF promoter), 24 hours incubation, estrogen-induced. As to the method:
1. Cellular Assay for Wnt Pathway Activity
Compounds were tested for their Wnt pathway inhibitory activities using a luciferase reporter cell based assay. A HEK293 luciferase reporter cell line was used which contained an Estrogen Receptor-Dishevelled (ER-DSH) construct and a T-Cell Factor (TCF) dependent gene promoter luciferase construct.
Compounds, in concentrations from 30 μM down to 1 nM, were incubated for 24 hours on the cells, which were induced for TCF-dependent transcription by the addition of estrogen (10). Luciferase activities were determined using the ONE GLO Luciferase Assay System (Promega) and the ENVISION microplate reader (Perkin Elmer). For analysis, the obtained data were normalized against the untreated vehicle control and fitted for determination of the IC50 values using the Assay Explorer software (Accelrys).
For the compound `CCc1ccnc(-c2ccc(Oc3cncc(N(C)CCN(C)C(C)=O)n3)cc2)c1` [Compound 167, N-[2-({6-[4-(4-Ethyl-pyridin-2-yl)-phenoxy]-pyrazin-2-yl}-methyl-amino)-ethyl]-N-methyl-acetamide], the IC50 is 200 to 1000 nM.
For the compound `CC(=O)N(C)CCN(C)c1cncc(Oc2ccc(-c3ccc([N+](=O)[O-])cn3)cc2)n1` [Compound 198, N-Methyl-N-[2-(methyl-{6-[4-(5-nitro-pyridin-2-yl)-phenoxy]-pyrazin-2-yl}-amino)-ethyl]-acetamide], the IC50 is < 200 nM.
For `CC(=O)Nc1ccc(-c2ccc(Oc3cncc(N(C)CCN(C)C(C)=O)n3)c(F)c2)cn1` [Compound 225, N-[2-({6-[4-(6-Acetylamino-pyridin-3-yl)-2-fluoro-phenoxy]-pyrazin-2-yl}-methyl-amino)-ethyl]-N-methyl-acetamide] the value was < 200 nM.
As for `CC(=O)Nc1ccc(-c2ccc(Oc3cncc(NCCN(C)C(C)=O)n3)cc2)cn1` [Compound 260, N-(2-{6-[4-(6-Acetylamino-pyridin-3-yl)-phenoxy]-pyrazin-2-ylamino}-ethyl)-N-methyl-acetamide], the IC50 was in the range of 200 to 1000 nM.
For the compound `CC(N)C(=O)N(C)CCN(C)c1cncc(Oc2ccc(F)cc2)n1` (centres unmarked) [Compound 308, 2-Amino-N-(2-{[6-(4-fluoro-phenoxy)-pyrazin-2-yl]-methyl-amino}-ethyl)-N-methyl-propionamide], the IC50 fell in the range of 1000 to 10000 nM.
`CC(=O)N(C)CCCc1cncc(Oc2ccc(-c3cccc(N4CCN(C)CC4)n3)cc2)n1` [Compound 217, N-Methyl-N-[3-(6-{4-[6-(4-methyl-piperazin-1-yl)-pyridin-2-yl]-phenoxy}-pyrazin-2-yl)-propyl]-acetamide] yielded an IC50 of 200 to 1000 nM.
The result for `CC(=O)N(C)CCN(C)c1cncc(Oc2ccc(-c3ccc(C#N)nc3)cc2)n1` [Compound 211, N-[2-({6-[4-(6-Cyano-pyridin-3-yl)-phenoxy]-pyrazin-2-yl}-methyl-amino)-ethyl]-N-methyl-acetamide] reads < 200 nM; that for `CCOC(=O)Cc1ccc(Oc2cncc(N(C)CCN(C)C(C)=O)n2)cc1` [Compound 137, [4-(6-{[2-(Acetyl-methyl-amino)-ethyl]-methyl-amino}-pyrazin-2-yloxy)-phenyl]-acetic acid ethyl ester], < 200 nM; that for `CCN(CCN(CC)c1cncc(Oc2ccc(OC)cc2)n1)C(C)=O` [Compound 103, N-Ethyl-N-(2-{ethyl-[6-(4-methoxy-phenoxy)-pyrazin-2-yl]-amino}-ethyl)-acetamide], 200 to 1000 nM.
For `CC(=O)N(C)CCN(C)c1cncc(Oc2ccc(C(=O)Nc3cccnc3)cc2)n1` [Compound 231, 4-(6-{[2-(Acetyl-methyl-amino)-ethyl]-methyl-amino}-pyrazin-2-yloxy)-N-pyridin-3-yl-benzamide] the value was < 200 nM.
`CS(=O)(=O)c1cncc(-c2ccc(Oc3cncc(NCCC(N)=O)n3)cc2)c1` [Compound 300, 3-{6-[4-(5-Methane-sulfonyl-pyridin-3-yl)-phenoxy]-pyrazin-2-ylamino}-propionamide]: the IC50 was ≥ 10000 nM.
The result for `CC(=O)N(C)CCN(C)c1cncc(Oc2ccc(-c3ccncc3C#N)cc2)n1` [Compound 144, N-[2-({6-[4-(3-Cyano-pyridin-4-yl)-phenoxy]-pyrazin-2-yl}-methyl-amino)-ethyl]-N-methyl-acetamide] reads < 200 nM; that for `CC(=O)N(C)CCN(C)c1cncc(Oc2ccc(-c3ccc(CCNC(=O)CCCCCNC(=O)CCCCC4SCC5NC(=O)NC54)cc3)cc2)n1` (centres unmarked) [Compound 271, 6-[5-(2-Oxo-hexahydro-thieno[3,4-d]imidazol-6-yl)-pentanoyl-amino]-hexanoic acid {2-[4′-(6-{[2-(acetyl-methyl-amino)-ethyl]-methyl-amino}-pyrazin-2-yloxy)-biphenyl-4-yl]-ethyl}-amide], < 200 nM.
In turn, `CC(=O)N(C)CCCc1cncc(Oc2ccc(-c3ccc(N4CCOCC4)nc3)cc2F)n1` [Compound 267, N-(3-{6-[2-Fluoro-4-(6-morpholin-4-yl-pyridin-3-yl)-phenoxy]-pyrazin-2-yl}-propyl)-N-methyl-acetamide] returned an IC50 of 200 to 1000 nM.
For `CC(=O)N(C)CCNc1cncc(Oc2ccc(-c3ccncc3C#N)cc2)n1` [Compound 242, N-(2-{6-[4-(3-Cyano-pyridin-4-yl)-phenoxy]-pyrazin-2-ylamino}-ethyl)-N-methyl-acetamide] the value was 1000 to 10000 nM.
Turning to `COc1ccc(-c2ccc(Oc3cncc(N(C)CCN(C)C(C)=O)n3)c(F)c2)nc1` [Compound 227, N-[2-({6-[2-Fluoro-4-(5-methoxy-pyridin-2-yl)-phenoxy]-pyrazin-2-yl}-methyl-amino)-ethyl]-N-methyl-acetamide], the IC50 was < 200 nM.
On to `CC(=O)N(C)CCN(C)c1cncc(Oc2ccc(-c3ccnc(F)c3)cc2)n1` [Compound 210, N-[2-({6-[4-(2-Fluoro-pyridin-4-yl)-phenoxy]-pyrazin-2-yl}-methyl-amino)-ethyl]-N-methyl-acetamide], for which the IC50 is < 200 nM.
For `CC(=O)N(C)CCN(C)c1cncc(O[C@H]2C[C@H]3CC[C@@H]2C3)n1` [Compound 208, N-(2-{[6-((1R,2S,4S)-Bicyclo[2.2.1]hept-2-yloxy)-pyrazin-2-yl]-methyl-amino}-ethyl)-N-methyl-acetamide] the value was 1000 to 10000 nM; for `CC(=O)N(C)CCN(C)c1cncc(Oc2ccc(-c3ccnnc3)cc2)n1` [Compound 261, N-Methyl-N-(2-{methyl-[6-(4-pyridazin-4-yl-phenoxy)-pyrazin-2-yl]-amino}-ethyl)-acetamide], < 200 nM; for `Cc1ccc(-c2ccc(Oc3cncc(NCCN4CCCCC4=O)n3)cc2)nc1` [Compound 197, 1-(2-{6-[4-(5-Methyl-pyridin-2-yl)-phenoxy]-pyrazin-2-ylamino}-ethyl)-piperidin-2-one], < 200 nM.
The result for `COc1ccc(-c2ccc(Oc3cncc(CCCN(C)C(C)=O)n3)cc2)nc1` [Compound 221, N-(3-{6-[4-(5-Methoxy-pyridin-2-yl)-phenoxy]-pyrazin-2-yl}-propyl)-N-methyl-acetamide] reads 200 to 1000 nM; that for `CC(=O)N(C)CCN(C)c1cncc(Oc2ccc(Br)c(F)c2F)n1` [Compound 248, N-(2-{[6-(4-Bromo-2,3-difluoro-phenoxy)-pyrazin-2-yl]-methyl-amino}-ethyl)-N-methyl-acetamide], 200 to 1000 nM; that for `CC(=O)NCCN(C)c1cncc(Oc2ccc(F)cc2)n1` [Compound 58, N-(2-{[6-(4-Fluoro-phenoxy)-pyrazin-2-yl]-methyl-amino}-ethyl)-acetamide], 1000 to 10000 nM.
As to `CC(=O)N(C)CCN(C)c1cncc(Oc2ccc(N3CCN(c4ccncc4)CC3)cc2)n1` [Compound 132, N-Methyl-N-[2-(methyl-{6-[4-(4-pyridin-4-yl-piperazin-1-yl)-phenoxy]-pyrazin-2-yl}-amino)-ethyl]-acetamide], the IC50 is < 200 nM.
`CC(=O)N(C)CCN(C)c1cncc(Oc2ccc(F)cc2F)n1` [Compound 105, N-(2-{[6-(2,4-Difluoro-phenoxy)-pyrazin-2-yl]-methyl-amino}-ethyl)-N-methyl-acetamide] displayed an IC50 of 200 to 1000 nM.
The result for `CC(=O)N(C)CCCc1cncc(Oc2ccc(F)cc2)c1` [Compound 304, N-{3-[5-(4-Fluoro-phenoxy)-pyridin-3-yl]-propyl}-N-methyl-acetamide] reads 200 to 1000 nM; that for `Nc1cnc(-c2ccc(Oc3cncc(NCCN4CCCCC4=O)n3)cc2)cn1` [Compound 291, 1-(2-{6-[4-(5-Amino-pyrazin-2-yl)-phenoxy]-pyrazin-2-ylamino}-ethyl)-piperidin-2-one], < 200 nM.
On to `COc1ccc(Oc2cncc(N(C)CCNC(C)=O)n2)cc1` [Compound 59, N-(2-{[6-(4-Methoxy-phenoxy)-pyrazin-2-yl]-methyl-amino}-ethyl)-acetamide], for which the IC50 was in the range of 200 to 1000 nM.
`CC(=O)N(C)CCN(C)c1cncc(Oc2ccc(-c3ccc(N4CCOCC4)nc3)cc2F)n1` [Compound 239, N-[2-({6-[2-Fluoro-4-(6-morpholin-4-yl-pyridin-3-yl)-phenoxy]-pyrazin-2-yl}-methyl-amino)-ethyl]-N-methyl-acetamide]: the IC50 was < 200 nM.
For `CC(=O)N(C)CCSc1cncc(Oc2ccc(F)cc2)n1` [Compound 136, N-{2-[6-(4-Fluoro-phenoxy)-pyrazin-2-ylsulfanyl]-ethyl}-N-methyl-acetamide] the value was < 200 nM.
`CC(=O)N(C)CCN(C)c1cncc(Oc2ccc(-c3ccncc3)cc2)n1` [Compound 203, N-Methyl-N-(2-{methyl-[6-(4-pyridin-4-yl-phenoxy)-pyrazin-2-yl]-amino}-ethyl)-acetamide]: the IC50 was < 200 nM.
For `CC(=O)N(C)CCN(C)c1cncc(Oc2ccc3c(c2)CCC3)n1` [Compound 92, N-(2-{[6-(Indan-5-yloxy)-pyrazin-2-yl]-methyl-amino}-ethyl)-N-methyl-acetamide] the value was < 200 nM; for `Nc1cnc(-c2ccc(Oc3cncc(CCCN4CCCCC4=O)n3)cc2)cn1` [Compound 263, 1-(3-{6-[4-(5-Amino-pyrazin-2-yl)-phenoxy]-pyrazin-2-yl}-propyl)-piperidin-2-one], < 200 nM; for `CC(=O)Nc1cccc(-c2ccc(Oc3cncc(NCCN(C)C(C)=O)n3)c(F)c2)n1` [Compound 259, N-(2-{6-[4-(6-Acetylamino-pyridin-2-yl)-2-fluoro-phenoxy]-pyrazin-2-ylamino}-ethyl)-N-methyl-acetamide], 1000 to 10000 nM.
For `CCN(CCNc1cncc(Oc2ccc(F)cc2)n1)C(C)=O` [Compound 72, N-Ethyl-N-{2-[6-(4-fluoro-phenoxy)-pyrazin-2-ylamino]-ethyl}-acetamide] the value was 1000 to 10000 nM.
